# Measured values: ChEMBL document CHEMBL1201862, “PubChem BioAssay data set” (2004)
#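 Results reflect a 48-hour exposure of cells in 96-well plates to compound at five concentrations. GI50: concentration for 50% inhibition of growth.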 Activity calls are given as the source filed them. Cut-off read from the data, not from the text of the source: active = GI50 up to about 1.1 µM and inactive = higher. Where a SMILES comes first, the peptide text is derived from it. The star is where a group is joined. Fmoc = O=C(OCC1c2ccccc2-c2ccccc21)*; Boc = CC(C)(C)OC(=O)*
# Key:
# Test in all cases: inhibition of tumour cell growth, NCI panel, 48 h
# 786-0 = system: 786-0
# A498 = system: A498
# A549 = system: A549
# ACHN = system: ACHN
# BT-549 = system: BT-549
# COLO 205 = system: COLO 205
# DU-145 = system: DU-145
# EKVX = system: EKVX
# HCC 2998 = system: HCC 2998
# HCT-116 = system: HCT-116
# HCT-15 = system: HCT-15
# HOP-62 = system: HOP-62
# Hs-578T = system: Hs-578T
# IGROV-1 = system: IGROV-1
# K562 = system: K562
# KM12 = system: KM12
# LOX IMVI = system: LOX IMVI
# M14 = system: M14
# MCF7 = system: MCF7
# MDA-MB-231 = system: MDA-MB-231
# MDA-MB-435 = system: MDA-MB-435
# MDA-N = system: MDA-N
# MOLT-4 = system: MOLT-4
# NCI-H226 = system: NCI-H226
# NCI-H23 = system: NCI-H23
# NCI-H460 = system: NCI-H460
# NCI/ADR-RES = system: NCI/ADR-RES
# OVCAR-3 = system: OVCAR-3
# OVCAR-4 = system: OVCAR-4
# OVCAR-5 = system: OVCAR-5
# OVCAR-8 = system: OVCAR-8
# PC-3 = system: PC-3
# RPMI-8226 = system: RPMI-8226
# RXF 393 = system: RXF 393
# SF-268 = system: SF-268
# SF-295 = system: SF-295
# SK-MEL-28 = system: SK-MEL-28
# SK-MEL-2 = system: SK-MEL-2
# SK-OV-3 = system: SK-OV-3
# SN12C = system: SN12C
# SNB-19 = system: SNB-19
# SNB-75 = system: SNB-75
# SR = system: SR
# SW-620 = system: SW-620
# T47D = system: T47D
# TK-10 = system: TK-10
# U-251 = system: U-251
# UACC-257 = system: UACC-257
# UACC-62 = system: UACC-62
# UO-31 = system: UO-31
# CAKI-1 = system: CAKI-1
# CCRF-CEM = system: CCRF-CEM
# HL-60 = system: HL-60
# HT-29 = system: HT-29
# Malme-3M = system: Malme-3M
# NCI-H522 = system: NCI-H522
# SK-MEL-5 = system: SK-MEL-5
# HOP-92 = system: HOP-92
# SF-539 = system: SF-539
compound,measurement,setting,value
O=C(O)c1ccc(/N=C(\C(=N\c2ccc(C(=O)O)cc2)c2ccccc2)c2ccccc2)cc1,GI50,786-0,> 100 µM (inactive)
same,GI50,A498,> 100 µM (inactive)
same,GI50,A549,> 100 µM (inactive)
same,GI50,ACHN,> 100 µM (inactive)
same,GI50,BT-549,33.5 µM (inactive)
same,GI50,COLO 205,> 100 µM (inactive)
same,GI50,DU-145,> 100 µM (inactive)
same,GI50,EKVX,> 100 µM (inactive)
same,GI50,HCC 2998,> 100 µM (inactive)
same,GI50,HCT-116,> 100 µM (inactive)
same,GI50,HCT-15,> 100 µM
same,GI50,HOP-62,> 100 µM (inactive)
same,GI50,Hs-578T,> 100 µM (inactive)
same,GI50,IGROV-1,> 100 µM (inactive)
same,GI50,K562,> 100 µM (inactive)
same,GI50,KM12,> 100 µM (inactive)
same,GI50,LOX IMVI,> 100 µM (inactive)
same,GI50,M14,> 100 µM (inactive)
same,GI50,MCF7,> 100 µM (inactive)
same,GI50,MDA-MB-231,> 100 µM (inactive)
same,GI50,MDA-MB-435,> 100 µM (inactive)
same,GI50,MDA-N,> 100 µM (inactive)
same,GI50,MOLT-4,> 100 µM (inactive)
same,GI50,NCI-H226,> 100 µM (inactive)
same,GI50,NCI-H23,> 100 µM (inactive)
same,GI50,NCI-H460,> 100 µM (inactive)
same,GI50,NCI/ADR-RES,> 100 µM (inactive)
same,GI50,OVCAR-3,> 100 µM (inactive)
same,GI50,OVCAR-4,> 100 µM (inactive)
same,GI50,OVCAR-5,> 100 µM (inactive)
same,GI50,OVCAR-8,> 100 µM (inactive)
same,GI50,PC-3,> 100 µM (inactive)
same,GI50,RPMI-8226,> 100 µM (inactive)
same,GI50,RXF 393,> 100 µM (inactive)
same,GI50,SF-268,> 100 µM (inactive)
same,GI50,SF-295,> 100 µM (inactive)
same,GI50,SK-MEL-28,> 100 µM (inactive)
same,GI50,SK-MEL-2,> 100 µM (inactive)
same,GI50,SK-OV-3,> 100 µM (inactive)
same,GI50,SN12C,> 100 µM (inactive)
same,GI50,SNB-19,> 100 µM (inactive)
same,GI50,SNB-75,> 100 µM (inactive)
same,GI50,SR,> 100 µM (inactive)
same,GI50,SW-620,> 100 µM (inactive)
same,GI50,T47D,> 100 µM (inactive)
same,GI50,TK-10,> 100 µM (inactive)
same,GI50,U-251,> 100 µM (inactive)
same,GI50,UACC-257,> 100 µM (inactive)
same,GI50,UACC-62,> 100 µM (inactive)
same,GI50,UO-31,> 100 µM (inactive)
COc1c2c(cc3occ(-c4ccc(CC=C(C)C)cc4)c(=O)c13)OC(C)(C)C=C2,GI50,786-0,84.1 µM (inactive)
same,GI50,A549,30.1 µM (inactive)
same,GI50,ACHN,77.6 µM (inactive)
same,GI50,BT-549,76.2 µM (inactive)
same,GI50,CAKI-1,> 100 µM (inactive)
same,GI50,CCRF-CEM,12.8 µM (inactive)
same,GI50,COLO 205,43.4 µM (inactive)
same,GI50,DU-145,84.7 µM (inactive)
same,GI50,EKVX,28.4 µM (inactive)
same,GI50,HCC 2998,59.2 µM (inactive)
same,GI50,HCT-116,26.4 µM (inactive)
same,GI50,HCT-15,45.9 µM
same,GI50,HL-60,10.3 µM (inactive)
same,GI50,HOP-62,> 100 µM (inactive)
same,GI50,HT-29,26.9 µM (inactive)
same,GI50,Hs-578T,85.1 µM (inactive)
same,GI50,IGROV-1,> 100 µM (inactive)
same,GI50,K562,10.6 µM (inactive)
same,GI50,KM12,41.4 µM (inactive)
same,GI50,LOX IMVI,23.6 µM (inactive)
same,GI50,M14,34.3 µM (inactive)
same,GI50,MCF7,31 µM (inactive)
same,GI50,MDA-MB-231,> 100 µM (inactive)
same,GI50,MDA-MB-435,27 µM (inactive)
same,GI50,MDA-N,44.6 µM (inactive)
same,GI50,MOLT-4,10.7 µM (inactive)
same,GI50,Malme-3M,60.5 µM (inactive)
same,GI50,NCI-H226,48.1 µM (inactive)
same,GI50,NCI-H23,25.8 µM (inactive)
same,GI50,NCI-H522,13.9 µM (inactive)
same,GI50,NCI/ADR-RES,18.2 µM (inactive)
same,GI50,OVCAR-3,10.3 µM (inactive)
same,GI50,OVCAR-4,> 10 µM (inactive)
same,GI50,OVCAR-5,> 100 µM (inactive)
same,GI50,OVCAR-8,48.4 µM (inactive)
same,GI50,PC-3,17.1 µM (inactive)
same,GI50,RPMI-8226,6.97 µM (inactive)
same,GI50,RXF 393,43.4 µM (inactive)
same,GI50,SF-268,> 100 µM (inactive)
same,GI50,SF-295,35.4 µM (inactive)
same,GI50,SK-MEL-28,> 100 µM (inactive)
same,GI50,SK-MEL-2,11.2 µM (inactive)
same,GI50,SK-MEL-5,11.7 µM (inactive)
same,GI50,SK-OV-3,> 100 µM (inactive)
same,GI50,SN12C,84.1 µM (inactive)
same,GI50,SNB-19,61.1 µM (inactive)
same,GI50,SNB-75,60.1 µM (inactive)
same,GI50,SR,8.55 µM (inactive)
same,GI50,SW-620,45.6 µM (inactive)
same,GI50,T47D,16.5 µM (inactive)
same,GI50,TK-10,81.8 µM (inactive)
same,GI50,U-251,33.7 µM (inactive)
same,GI50,UACC-257,39.4 µM (inactive)
same,GI50,UACC-62,> 100 µM (inactive)
same,GI50,UO-31,33.1 µM (inactive)
CC(C)(C)OC(=O)NCCCCC(NC(=O)OCC1c2ccccc2-c2ccccc21)C(=O)N1CCCC1C(=O)NCC(N)=O (stereo not drawn) (Fmoc-Lys(Boc)-Pro-Gly-NH2; configuration not given here),GI50,786-0,19.3 µM (inactive)
same,GI50,A549,51.4 µM (inactive)
same,GI50,ACHN,17.9 µM (inactive)
same,GI50,BT-549,66.2 µM (inactive)
same,GI50,CAKI-1,16.4 µM (inactive)
same,GI50,CCRF-CEM,76.6 µM (inactive)
same,GI50,COLO 205,28.4 µM (inactive)
same,GI50,DU-145,> 100 µM (inactive)
same,GI50,EKVX,76.2 µM (inactive)
same,GI50,HCC 2998,58.2 µM (inactive)
same,GI50,HCT-116,36.6 µM (inactive)
same,GI50,HCT-15,16.1 µM
same,GI50,HL-60,32.8 µM (inactive)
same,GI50,HOP-62,89.1 µM (inactive)
same,GI50,HOP-92,20.4 µM (inactive)
same,GI50,HT-29,31.3 µM (inactive)
same,GI50,Hs-578T,> 100 µM (inactive)
same,GI50,IGROV-1,48.4 µM (inactive)
same,GI50,K562,48.1 µM (inactive)
same,GI50,KM12,20.7 µM (inactive)
same,GI50,LOX IMVI,21.3 µM (inactive)
same,GI50,M14,35.1 µM (inactive)
same,GI50,MCF7,43.9 µM (inactive)
same,GI50,MDA-MB-231,46.7 µM (inactive)
same,GI50,MDA-MB-435,27.6 µM (inactive)
same,GI50,MDA-N,19.3 µM (inactive)
same,GI50,MOLT-4,29.5 µM (inactive)
same,GI50,Malme-3M,18.3 µM (inactive)
same,GI50,NCI-H226,> 100 µM (inactive)
same,GI50,NCI-H23,94.8 µM (inactive)
same,GI50,NCI-H460,20.3 µM (inactive)
same,GI50,NCI/ADR-RES,33.4 µM (inactive)
same,GI50,OVCAR-3,45.1 µM (inactive)
same,GI50,OVCAR-4,23.2 µM (inactive)
same,GI50,OVCAR-5,> 100 µM (inactive)
same,GI50,OVCAR-8,66.5 µM (inactive)
same,GI50,PC-3,27.9 µM (inactive)
same,GI50,RPMI-8226,50.7 µM (inactive)
same,GI50,RXF 393,61 µM (inactive)
same,GI50,SF-268,95.5 µM (inactive)
same,GI50,SF-295,78.3 µM (inactive)
same,GI50,SF-539,88.1 µM (inactive)
same,GI50,SK-MEL-28,> 100 µM (inactive)
same,GI50,SK-MEL-2,> 100 µM (inactive)
same,GI50,SK-MEL-5,80.4 µM (inactive)
same,GI50,SK-OV-3,2.17 µM (inactive)
same,GI50,SN12C,16.2 µM (inactive)
same,GI50,SNB-19,> 100 µM (inactive)
same,GI50,SNB-75,7.6 µM (inactive)
same,GI50,SR,21.1 µM (inactive)
same,GI50,SW-620,87.9 µM (inactive)
same,GI50,T47D,24.7 µM (inactive)
same,GI50,TK-10,> 100 µM (inactive)
same,GI50,U-251,18.5 µM (inactive)
same,GI50,UACC-257,> 100 µM (inactive)
same,GI50,UACC-62,46 µM (inactive)
same,GI50,UO-31,15.3 µM (inactive)
